Laboratory results taken from patent publication US9932637B2, “Genetic polymorphisms associated with cardiovascular disorders and drug response, methods of detection and uses thereof” (CELERA CORPORATION, priority 2003, dated 2018).

Tested on: patients with prior myocardial infarction (CARE study)
Experiment: CARE: association of SNPs with pravastatin treatment in cardiovascular events prevention (logistic regression, odds ratio pravastatin vs placebo by genotype; Table 8)
Assay type: in vivo, human
Description: In order to identify genetic markers associated with acute coronary events (e.g. MI, stroke, unstable angina, congestive heart failure, etc.) or response to statin treatment for the prevention of coronary events, samples from the Cholesterol and Recurrent Events (CARE) study (a randomized multicentral double-blinded trial on secondary prevention of acute coronary events with pravastatin) (Sacks et al., 1991, Am. J. Cardiol. 68: 1436-1446) were genotyped. A well-documented myocardial infarction (MI) was one of the enrollment criteria for entry into the CARE study. Patients were enrolled in the CARE trial from 80 participating study centers. […] Patients were randomized to receive either 40 mg of pravastatin once daily or a matching placebo. The primary endpoint of the trial was death from coronary heart disease and the median duration of follow-up was 5.0 years (range, 4.0 to 6.2 years). […] Secondary endpoints of other related cardiovascular or metabolic disease events, and changes in clinical variables were also recorded in pravastatin-treated and placebo groups. All individuals included in the study had signed a written informed consent form and the study protocol was approved by the respective Institutional Review Boards (IRBs).
For genotyping SNPs in CARE patient samples, DNA was extracted from blood samples using conventional DNA extraction methods such as the QIA-amp kit from Qiagen. Genotypes were obtained on an ABI PRISM® 7900HT Sequence Detection PCR system (Applied Biosystems, Foster City, Calif.) by kinetic allele-specific PCR, similar to the method described by Germer et al. (Germer S., Holland M. J., Higuchi R. 2000, Genome Res. 10: 258-266).
Statistical analysis for association of SNPs with pravastatin treatment in cardiovascular events prevention (Table 8) was carried out using an overall logistic regression model that included an intercept, a parameter for the effect of a genotype containing two rare alleles versus a genotype containing no rare alleles, a parameter for the effect of a genotype containing one rare allele versus a genotype containing no rare alleles, a parameter for the effect of use of pravastatin versus the use of placebo, and parameters for the interaction effects between SNP genotypes and pravastatin use. The test of the overall model is a chi-square test with two degrees of freedom for analyses containing all three genotypes, and one degree of freedom for analyses containing two genotypes.
Effect sizes were estimated through odds ratios (pravastatin group versus placebo) for carriers of each genotype (groups of 0, 1, and 2 minor allele carriers). The effect was considered to be significant if p-value for testing whether any of the interactions between SNP genotypes and pravastatin use were <0.05. […] Odds ratios less than one indicate that the specific SNP allele has a protective effect and odds ratios greater than one indicate that the specific SNP allele has an adverse effect.

[1] = IL9 hCV3275199, All Patients, 0 Rare Alleles, Prava arm
[2] = IL9 hCV3275199, All Patients, 1 Rare Allele, Prava arm
[3] = IL9 hCV3275199, All Patients, 2 Rare Alleles, Prava arm
[4] = IL12A hCV16053900, All Patients, 0 Rare Alleles, Prava arm
[5] = IL12A hCV16053900, All Patients, 1 Rare Allele, Prava arm
[6] = IL12A hCV16053900, All Patients, 2 Rare Alleles, Prava arm
[7] = KLK14 hCV16044337, All Patients, 0 Rare Alleles, Prava arm
[8] = KLK14 hCV16044337, All Patients, 1 Rare Allele, Prava arm
[9] = KLK14 hCV16044337, All Patients, 2 Rare Alleles, Prava arm
[10] = LAMA5 hCV25629492, All Patients, 0 Rare Alleles, Prava arm
[11] = LAMA5 hCV25629492, All Patients, 1 Rare Allele, Prava arm
[12] = LAMA5 hCV25629492, All Patients, 2 Rare Alleles, Prava arm
[13] = LRP8 hCV190754, All Patients, Hosp. for Unstable Angina
[14] = MARK3 hCV25926771, All Patients, 0 Rare Alleles, Prava arm
[15] = MARK3 hCV25926771, All Patients, 1 Rare Allele, Prava arm
[16] = MJD hCV16189421, All Patients, 0 Rare Alleles, Prava arm

CC[C@H](C)C(=O)O[C@H]1C[C@H](O)C=C2C=C[C@H](C)[C@H](CC[C@@H](O)C[C@@H](O)CC(=O)O)[C@H]21 [pravastatin]
Nonfatal MI (Probable/Definite), n/total (%) [1]: (10.4%) | Nonfatal MI (def & prob), n/total (%) [1]: (9.8%) | Fatal/Nonfatal MI (def & prob), n/total (%) [2]: (6.0%) | MI (Fatal/Nonfatal), n/total (%) [2]: (6.0%) | Nonfatal MI (Probable/Definite), n/total (%) [2]: (5.7%) | Nonfatal MI (def & prob), n/total (%) [2]: (5.7%) | Fatal/Nonfatal MI (def & prob), n/total (%) [3]: (6.1%) | MI (Fatal/Nonfatal), n/total (%) [3]: (6.1%) | Nonfatal MI (Probable/Definite), n/total (%) [3]: (6.1%) | Nonfatal MI (def & prob), n/total (%) [3]: (6.1%) | Coronary Artery Bypass Graft, n/total (%) [4]: (4.9%) | Coronary Artery Bypass or Revascularization, n/total (%) [4]: (11.0%) | Coronary Artery Bypass Graft, n/total (%) [5]: (8.9%) | Coronary Artery Bypass or Revascularization, n/total (%) [5]: (16.2%) | Coronary Artery Bypass Graft, n/total (%) [6]: (7.2%) | Coronary Artery Bypass or Revascularization, n/total (%) [6]: (14.8%) | Coronary Artery Bypass Graft, n/total (%) [7]: (8.7%) | Definite Nonfatal MI, n/total (%) [7]: (7.1%) | Fatal CHD/Definite Nonfatal MI, n/total (%) [7]: (9.5%) | Fatal/Nonfatal MI (def & prob), n/total (%) [7]: (9.8%) | MI (Fatal/Nonfatal), n/total (%) [7]: (10.1%) | Nonfatal MI (Probable/Definite), n/total (%) [7]: (9.7%) | Nonfatal MI (def & prob), n/total (%) [7]: (9.1%) | Coronary Artery Bypass Graft, n/total (%) [8]: (6.2%) | Definite Nonfatal MI, n/total (%) [8]: (7.2%) | Fatal CHD/Definite Nonfatal MI, n/total (%) [8]: (9.9%) | Fatal/Nonfatal MI (def & prob), n/total (%) [8]: (10.0%) | MI (Fatal/Nonfatal), n/total (%) [8]: (10.2%) | Nonfatal MI (Probable/Definite), n/total (%) [8]: (9.4%) | Nonfatal MI (def & prob), n/total (%) [8]: (9.1%) | Coronary Artery Bypass Graft, n/total (%) [9]: (5.6%) | Definite Nonfatal MI, n/total (%) [9]: (4.4%) | Fatal CHD/Definite Nonfatal MI, n/total (%) [9]: (5.6%) | Fatal/Nonfatal MI (def & prob), n/total (%) [9]: (6.9%) | MI (Fatal/Nonfatal), n/total (%) [9]: (6.9%) | Nonfatal MI (Probable/Definite), n/total (%) [9]: (6.3%) | Nonfatal MI (def & prob), n/total (%) [9]: (6.3%) | Definite Nonfatal MI, n/total (%) [10]: (8.8%) | Fatal/Nonfatal MI (def & prob), n/total (%) [10]: (12.1%) | Nonfatal MI (def & prob), n/total (%) [10]: (11.3%) | Definite Nonfatal MI, n/total (%) [11]: (5.4%) | Fatal/Nonfatal MI (def & prob), n/total (%) [11]: (7.7%) | Nonfatal MI (def & prob), n/total (%) [11]: (7.4%) | Definite Nonfatal MI, n/total (%) [12]: (4.1%) | Fatal/Nonfatal MI (def & prob), n/total (%) [12]: (7.7%) | Nonfatal MI (def & prob), n/total (%) [12]: (5.4%) | Hosp. for Unstable Angina, n/total (%) (LRP8 hCV190754, All Patients, 0 Rare Alleles, Prava, n/total 98/560): (17.5%) | Hosp. for Unstable Angina, n/total (%) (LRP8 hCV190754, All Patients, 1 Rare Allele, Prava, n/total 100/712): (14.0%) | Hosp. for Unstable Angina, n/total (%) (LRP8 hCV190754, All Patients, 2 Rare Alleles, Prava, n/total 32/244): (13.1%) | Prava vs. Placebo Odds Ratio, 0 Rare Alleles [13]: 1.21 | Prava vs. Placebo Odds Ratio, 1 Rare Alleles [13]: 0.70 | Prava vs. Placebo Odds Ratio, 2 Rare Alleles [13]: 0.54 | Definite Nonfatal MI, n/total (%) [14]: (6.7%) | Fatal CHD/Definite Nonfatal MI, n/total (%) [14]: (9.9%) | Definite Nonfatal MI, n/total (%) [15]: (7.0%) | Fatal CHD/Definite Nonfatal MI, n/total (%) [15]: (9.1%) | Fatal/Nonfatal MI (def & prob), n/total (%) [16]: (8.4%) | Hosp. for Unstable Angina, n/total (%) [16]: (14.4%)
